Test results published in patent US8927559B2, “Quinazolinone-type compounds as CRTH2 antagonists” (Merck Sharp & Dohme Corp., priority 2010, dated 2015).
“And” between values parts separate entries of the source, which are not always exact repeats. Identical values can stand only once. Like-named read-outs stand apart in the source and are kept apart here.

Molecular target: T1, CRTH2 receptor (hCRTH2) (Homo sapiens, UniProt Q9Y5Y4)
T1 construct: expressed in transfected cells; host or cells: HEK cells (HEK-hCRTH2 cell line), membranes
T1 sequence (Q9Y5Y4 1-395): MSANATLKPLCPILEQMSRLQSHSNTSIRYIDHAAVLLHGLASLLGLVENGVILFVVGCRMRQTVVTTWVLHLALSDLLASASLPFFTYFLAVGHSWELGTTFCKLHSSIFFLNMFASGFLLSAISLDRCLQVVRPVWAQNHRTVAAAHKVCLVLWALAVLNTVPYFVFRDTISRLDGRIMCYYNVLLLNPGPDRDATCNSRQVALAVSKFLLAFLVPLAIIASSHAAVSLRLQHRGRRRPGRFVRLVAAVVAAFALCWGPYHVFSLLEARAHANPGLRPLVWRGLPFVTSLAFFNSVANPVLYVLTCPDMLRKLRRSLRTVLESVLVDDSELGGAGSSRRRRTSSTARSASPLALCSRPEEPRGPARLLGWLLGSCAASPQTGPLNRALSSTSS
Experiment: Radioligand binding assay ([3H]PGD2 competition, membranes of HEK-hCRTH2 cell line)
Details: 3.0 nM [3H]PGD2, HEK-hCRTH2 membranes, 60 min, room temperature
Protocol: Competing ligands were diluted in dimethylsulfoxide (Me2SO) that was kept constant at 1% (v/v) of the final incubation volume. The reaction was initiated by the addition of 8-20 μg of membrane protein prepared from a HEK-hCRTH2 cell line. Total and non-specific binding were determined in the absence and the presence of […] PGD2, respectively. […] The reaction was routinely conducted for 60 min at room temperature and terminated by rapid filtration through prewetted (0.3% polyethyleneimine) 96-well printed filtermate (Wallac) using a Tomtec harvester. After washing with cold buffer, the filter was dried for 2 minutes in microwave, and Meltilex Scintillator sheet (Wallac) was melted on for 2 min.

SMILES	Ki (read-out: Ki)	Ki (Ki) [nM]
O=C(O)CCCCc1nc2cc(C3=NOC(c4nc5ccccc5o4)C3)ccc2c(=O)n1-c1ccc(F)cc1 (single isomer, unassigned) [Example 28D, 5-(7-(5-(benzo[d]oxazol-2-yl)-4,5-dihydroisoxazol-3-yl)-3-(4-fluorophenyl)-4-oxo-3,4-dihydroquinazolin-2-yl)pentanoic acid]	10 to 50 nM	
O=C(O)CCCCc1nc2cc(C3=NOC(c4nc5ccccc5o4)C3)ccc2c(=O)n1-c1ccc(F)cc1 (single isomer, unassigned) [Example 28E, 5-(7-(5-(benzo[d]oxazol-2-yl)-4,5-dihydroisoxazol-3-yl)-3-(4-fluorophenyl)-4-oxo-3,4-dihydroquinazolin-2-yl)pentanoic acid]	≤ 10 nM	
CC1(c2nc3ccccc3o2)CC(c2ccc3c(=O)n(-c4ccc(F)cc4)c(CCCCC(=O)O)nc3c2)=NO1 (single isomer, unassigned) [Example 35, 5-(7-(5-(benzo[d]oxazol-2-yl)-5-methyl-4,5-dihydroisoxazol-3-yl)-3-(4-fluorophenyl)-4-oxo-3,4-dihydroquinazolin-2-yl)pentanoic acid]		≤ 10
CC1(c2nc3ccccc3o2)CC(c2ccc3c(=O)n(-c4ccc(F)cc4)c(CCCCC(=O)O)nc3c2)=NO1 (single isomer, unassigned) [Example 35G, 5-(7-(5-(benzo[d]oxazol-2-yl)-5-methyl-4,5-dihydroisoxazol-3-yl)-3-(4-fluorophenyl)-4-oxo-3,4-dihydroquinazolin-2-yl)pentanoic acid]		10 to 50
CC(c1ccccc1)C1(C)CC(c2ccc3c(=O)n(-c4ccc(F)cc4)c(CCCCC(=O)O)nc3c2)=NO1 (single isomer, unassigned) [Example 42, 5-(3-(4-fluorophenyl)-7-(5-methyl-5-(1-phenylethyl)-4,5-dihydroisoxazol-3-yl)-4-oxo-3,4-dihydroquinazolin-2-yl)pentanoic acid]	≤ 10 nM	
CC(c1ccccc1)C1(C)CC(c2ccc3c(=O)n(-c4ccc(F)cc4)c(CCCCC(=O)O)nc3c2)=NO1 (single isomer, unassigned) [Example 42E, 5-(3-(4-fluorophenyl)-7-(5-methyl-5-(1-phenylethyl)-4,5-dihydroisoxazol-3-yl)-4-oxo-3,4-dihydroquinazolin-2-yl)pentanoic acid]	≤ 10 nM	
CC(c1ccccc1)C1(C)CC(c2ccc3c(=O)n(-c4ccc(F)cc4)c(CCCCC(=O)O)nc3c2)=NO1 (single isomer, unassigned) [Example 42F, 5-(3-(4-fluorophenyl)-7-(5-methyl-5-(1-phenylethyl)-4,5-dihydroisoxazol-3-yl)-4-oxo-3,4-dihydroquinazolin-2-yl)pentanoic acid]	≤ 10 nM	
CC(c1ccccc1)C1(C)CC(c2ccc3c(=O)n(-c4ccc(F)cc4)c(CCCCC(=O)O)nc3c2)=NO1 (single isomer, unassigned) [Example 42G, 5-(3-(4-fluorophenyl)-7-(5-methyl-5-(1-phenylethyl)-4,5-dihydroisoxazol-3-yl)-4-oxo-3,4-dihydroquinazolin-2-yl)pentanoic acid]	10 to 50 nM	
O=C(O)CCCCc1nc2cc(C3=NOC4(CC[C@H](c5ccccc5)C4)C3)ccc2c(=O)n1-c1ccc(F)cc1 (single isomer, unassigned) [Example 139]	≤ 10 nM	
O=C(O)CCCCc1nc2cc(C3=NOC4(CC[C@@H](c5ccccc5)C4)C3)ccc2c(=O)n1-c1ccc(F)cc1 (single isomer, unassigned) [Example 141]	≤ 10 nM	
O=C(O)CSc1nc2cc(-c3cscn3)ccc2c(=O)n1-c1ccc(F)cc1 [Example 1K]	10 to 50 nM	
O=C(O)CCCCc1nc2cc(-c3cc(C4CC4)on3)ccc2c(=O)n1-c1ccc(F)cc1 [Example 5J]	10 to 50 nM	
O=C(O)CCCCc1nc2cc(-c3ccon3)ccc2c(=O)n1-c1ccc(F)cc1 [Example 5K]	10 to 50 nM	
O=C(O)CCCCc1nc2cc(-c3cc(C(F)(F)F)on3)ccc2c(=O)n1-c1ccc(F)cc1 [Example 5M]	≤ 10 nM	
O=C(O)CCCCc1nc2cc(-c3cc(-c4ccc(F)cc4)on3)ccc2c(=O)n1-c1ccc(F)cc1 [Example 5N]	≤ 10 nM	
O=C(O)CCCCc1nc2cc(-c3cc(C(=O)C4CC4)on3)ccc2c(=O)n1-c1ccc(F)cc1 [Example 5Q]	10 to 50 nM	
Cc1cc(-c2ccc3c(=O)n(-c4ccc(F)cc4)c(CCCCC(=O)O)nc3c2)no1 [Example 5i]	10 to 50 nM	
O=C(O)CCCCc1nc2cc(-c3cc(C4CC4)no3)ccc2c(=O)n1-c1ccc(F)cc1 [Example 8C, 5-(7-(3-Cyclopropylisoxazol-5-yl)-3-(4-fluorophenyl)-4-oxo-3,4-dihydroquinazolin-2-yl)pentanoic acid]	10 to 50 nM	
Cc1cc(-c2ccc3c(=O)n(-c4ccc(F)cc4)c(CCCCC(=O)O)nc3c2)on1 [Example 8D]	≤ 10 nM	
Cn1cc(-c2ccc3c(=O)n(-c4ccc(F)cc4)c(CCCCC(=O)O)nc3c2)nn1 [Example 9, 5-(3-(4-Fluorophenyl)-7-(1-methyl-1H-1,2,3-triazol-4-yl)-4-oxo-3,4-dihydroquinazolin-2-yl)pentanoic acid]	≤ 10 nM	
Cc1cc(-c2ccc3c(=O)n(-c4ccc(C(F)(F)F)cc4)c(CCCCC(=O)O)nc3c2)no1 [Example 13, 5-{7-(5-Methylisoxazol-3-yl)-4-oxo-3-[4-(trifluoromethyl)phenyl]-3,4-dihydroquinazolin-2-yl}pentanoic acid]	≤ 10 nM	
O=C(O)CCCCc1nc2cc(-c3noc(-c4ccncc4)n3)ccc2c(=O)n1-c1ccc(F)cc1 [Example 14, 5-{3-(4-fluorophenyl)-4-oxo-7-[5-(pyridin-4-0)-1,2,4-oxadiazol-3-yl]-3,4-dihydroquinazolin-2-yl}pentanoic acid]	10 to 50 nM and 17.2 nM	

SMILES	Ki (read-out: Ki)	Ki (Ki) [nM]
CC(C)(C)c1ccc(-c2nc(-c3ccc4c(=O)n(-c5ccc(F)cc5)c(CCCCC(=O)O)nc4c3)no2)cc1 [Example 14C]	10 to 50 nM	
O=C(O)CCCCc1nc2cc(C3=NOC(c4ccccc4)C3)ccc2c(=O)n1-c1ccc(F)cc1 (centres unmarked) [Example 15, 5-(3-(4-fluorophenyl)-4-oxo-7-(5-phenyl-4,5-dihydroisoxazol-3-yl)-3,4-dihydroquinazolin-2-yl)pentanoic acid]	10 to 50 nM	
CC1(c2ccccc2)CC(c2ccc3c(=O)n(-c4ccc(F)cc4)c(CCCCC(=O)O)nc3c2)=NO1 (centres unmarked) [Example 15E]		10 to 50
CC1(c2ccccc2)CC(c2ccc3c(=O)n(-c4ccc(F)cc4)c(CCCCC(=O)O)nc3c2)=NO1 (centres unmarked) [Example 15F]		≤ 10
O=C(O)CCCCc1nc2cc(C3=NOC(c4ccccn4)C3)ccc2c(=O)n1-c1ccc(F)cc1 (centres unmarked) [Example 15G]	10 to 50 nM	
O=C(O)CCCCc1nc2cc(C3=NOC(c4ccncc4)C3)ccc2c(=O)n1-c1ccc(F)cc1 (centres unmarked) [Example 15H]	10 to 50 nM	
O=C(O)CCCCc1nc2cc(C3=NOC(c4ccccc4)C3)ccc2c(=O)n1-c1ccc(Cl)cc1 (centres unmarked) [Example 15K]	≤ 10 nM	
O=C(O)CCCCc1nc2cc(C3=NOC(c4ccccn4)C3)ccc2c(=O)n1-c1ccc(Cl)cc1 (centres unmarked) [Example 15L]	≤ 10 nM	
O=C(O)CCCCc1nc2cc(C3=NOC(c4ccncc4)C3)ccc2c(=O)n1-c1ccc(Cl)cc1 (centres unmarked) [Example 15M]	≤ 10 nM	
COc1cccc(C2CC(c3ccc4c(=O)n(-c5ccc(F)cc5)c(CCCCC(=O)O)nc4c3)=NO2)c1 (centres unmarked) [Example 15N]	≤ 10 nM	
O=C(O)CCCCc1nc2cc(C3=NOC(c4cccc(Cl)c4)C3)ccc2c(=O)n1-c1ccc(F)cc1 (centres unmarked) [Example 15P]	≤ 10 nM	
N#Cc1ccc(C2CC(c3ccc4c(=O)n(-c5ccc(F)cc5)c(CCCCC(=O)O)nc4c3)=NO2)cc1 (centres unmarked) [Example 15Q]	≤ 10 nM	
CC(C)(C)OC(=O)N1CCC2(CC1)CC(c1ccc3c(=O)n(-c4ccc(Cl)cc4)c(CCCCC(=O)O)nc3c1)=NO2 [Example 15T]	≤ 10 nM	
CC(=O)N1CCC2(CC1)CC(c1ccc3c(=O)n(-c4ccc(Cl)cc4)c(CCCCC(=O)O)nc3c1)=NO2 [Example 15U]	10 to 50 nM	
COCC1(c2ccccc2)CC(c2ccc3c(=O)n(-c4ccc(F)cc4)c(CCCCC(=O)O)nc3c2)=NO1 (centres unmarked) [Example 15V]	10 to 50 nM	
COCC1(c2ccccc2)CC(c2ccc3c(=O)n(-c4ccc(Cl)cc4)c(CCCCC(=O)O)nc3c2)=NO1 (centres unmarked) [Example 15W]	10 to 50 nM	
O=C(O)CCCCc1nc2cc(C3=NOC4(CCCCC4)C3)ccc2c(=O)n1-c1ccc(F)cc1 [Example 15X]	≤ 10 nM	
O=C(O)CCCCc1nc2cc(C3=NOC4(CCCCC4)C3)ccc2c(=O)n1-c1ccc(Cl)cc1 [Example 15Y]	≤ 10 nM	
N#CC1CC2(CC(c3ccc4c(=O)n(-c5ccc(Cl)cc5)c(CCCCC(=O)O)nc4c3)=NO2)C1 (centres unmarked) [Example 15Z]	≤ 10 nM	
CC1(c2ccccc2)CC(c2ccc3c(=O)n(-c4ccc(Cl)cc4)c(CCCCC(=O)O)nc3c2)=NO1 (centres unmarked) [Example 15i]	≤ 10 nM	
COc1cccc(C2CC(c3ccc4c(=O)n(-c5ccc(Cl)cc5)c(CCCCC(=O)O)nc4c3)=NO2)c1 (centres unmarked) [Example 15o]	≤ 10 nM	
O=C(O)CCCCc1nc2cc(-c3cn(Cc4ccccc4)nn3)ccc2c(=O)n1-c1ccc(F)cc1 [Example 17, 5-[7-(1-benzyl-1H-1,2,3-triazol-4-yl)-3-(4-fluorophenyl)-4-oxo-3,4-dihydroquinazolin-2-yl]pentanoic acid]	≤ 10 nM	
